{"source": "patent EP0684766B1", "about": "“HERBICIDAL COMPOSITIONS” (Hoechst Schering AgrEvo GmbH, priority 1993, dated 1994)", "key": {"[1]": {"test_system": "Galium aparine", "test": "Post-emergent field test on winter cereals, % control of weeds", "conditions": "for % Control GALAP: post-emergent", "procedure": "(§1) The Examples are field tests carried out post-emergently in the Autumn on winter cereals. The compositions are evenly applied to the plants as suspensions using a water amount of 500 litres per hectare. […] The evaluation of the individual components (a) and (b) as well as their mixtures was carried out on a scale where 0 is no damage and 100 is complete destruction of the plants."}, "[2]": {"test_system": "Viola arvensis", "test": "Post-emergent field test on winter cereals, % control of weeds", "conditions": "for % Control VIOLA: post-emergent", "procedure": "as §1"}, "[3]": {"test_system": "Stellaria media", "test": "Post-emergent field test on winter cereals, % control of weeds", "conditions": "for % Control STEME: post-emergent", "procedure": "as §1"}, "[4]": {"test_system": "Matricaria chamomilla", "test": "Post-emergent field test on winter cereals, % control of weeds", "conditions": "for % Control MATCH: post-emergent", "procedure": "as §1"}, "[5]": {"test_system": "plants", "test": "Herbicidal activity of the phosphonate applied on its own", "assay_type": "in vivo"}, "[6]": {"conditions": "15 g ai/ha, evaluation 30 days after application"}, "[7]": {"conditions": "24 g ai/ha, evaluation 15 days after application"}, "[8]": {"conditions": "48 g ai/ha, evaluation 15 days after application"}, "[9]": {"conditions": "48 g ai/ha, evaluation 30 days after application"}, "[10]": {"conditions": "95 g ai/ha, evaluation 15 days after application"}, "[11]": {"conditions": "10 g ai/ha, evaluation 15 days after application"}, "[12]": {"conditions": "Galium aparine, post-emergence, 360 h, read-out: % Control GALAP"}, "[13]": {"conditions": "Viola arvensis, post-emergence, 360 h, read-out: % Control VIOLA"}, "[14]": {"conditions": "Stellaria media, post-emergence, 360 h, read-out: % Control STEME"}, "[15]": {"conditions": "Matricaria chamomilla, post-emergence, 360 h, read-out: % Control MATCH"}, "[16]": {"conditions": "Galium aparine, post-emergence, 720 h, read-out: % Control GALAP"}, "[17]": {"conditions": "Viola arvensis, post-emergence, 720 h, read-out: % Control VIOLA"}, "[18]": {"conditions": "Stellaria media, post-emergence, 720 h, read-out: % Control STEME"}, "[19]": {"conditions": "Matricaria chamomilla, post-emergence, 720 h, read-out: % Control MATCH"}}, "data": [{"smiles": "COC(=O)c1ccccc1S(=O)(=O)NC(=O)N(C)c1nc(C)nc(OC)n1", "values": [{"measurement": "% Control GALAP", "setting": "[1]; [6]", "value": 47, "unit": "%"}, {"measurement": "% Control VIOLA", "setting": "[2]; [6]", "value": 40, "unit": "%"}, {"measurement": "% Control STEME", "setting": "[3]; [6]", "value": 78, "unit": "%"}, {"measurement": "% Control MATCH", "setting": "[4]; [6]", "value": 88, "unit": "%"}]}, {"smiles": "CCCCC(CC)COP(=O)(CC(CC)CCCC)OCC(CC)CCCC", "note": "(stereo not shown) [(a), O,O-bis(2-ethylhexyl)(2-ethylhexyl)phosphonate]", "values": [{"measurement": "herbicidal activity", "setting": "[5]", "value": "no herbicidal activity"}, {"measurement": "% Control GALAP", "setting": "[1]; [7]", "value": 0, "unit": "%"}, {"measurement": "% Control GALAP", "setting": "[1]; [8]", "value": 0, "unit": "%"}, {"measurement": "% Control GALAP", "setting": "[1]; [9]", "value": 0, "unit": "%"}, {"measurement": "% Control GALAP", "setting": "[1]; [10]", "value": 0, "unit": "%"}, {"measurement": "% Control VIOLA", "setting": "[2]; [8]", "value": 0, "unit": "%"}, {"measurement": "% Control VIOLA", "setting": "[2]; [9]", "value": 0, "unit": "%"}, {"measurement": "% Control VIOLA", "setting": "[2]; [10]", "value": 0, "unit": "%"}, {"measurement": "% Control STEME", "setting": "[3]; [7]", "value": 0, "unit": "%"}, {"measurement": "% Control STEME", "setting": "[3]; [8]", "value": 0, "unit": "%"}, {"measurement": "% Control STEME", "setting": "[3]; [9]", "value": 0, "unit": "%"}, {"measurement": "% Control STEME", "setting": "[3]; [10]", "value": 0, "unit": "%"}, {"measurement": "% Control MATCH", "setting": "[4]; [7]", "value": 0, "unit": "%"}, {"measurement": "% Control MATCH", "setting": "[4]; [8]", "value": 0, "unit": "%"}, {"measurement": "% Control MATCH", "setting": "[4]; [9]", "value": 0, "unit": "%"}, {"measurement": "% Control MATCH", "setting": "[4]; [10]", "value": 0, "unit": "%"}]}, {"smiles": "C#CCN1C(=O)COc2cc(F)c(N=c3snc4n3CC(C)(C)C4)cc21", "note": "[(b1), 6-(6,7-dihydro-6,6-dimethyl-3H,5H-pyrrolo[2,1-c][1,2,4]thiadiazol-3-ylidenimino)-7-fluoro-4-(2-propynyl)-2H-1,4-benzoxazin-3(4H)-one]", "values": [{"measurement": "% Control GALAP", "setting": "[1]; [11]", "value": 47, "unit": "%"}, {"measurement": "% Control STEME", "setting": "[3]; [11]", "value": 70, "unit": "%"}, {"measurement": "% Control MATCH", "setting": "[4]; [11]", "value": 50, "unit": "%"}]}, {"smiles": "C#CCN1C(=O)COc2cc(F)c(N3C(=O)C4CCCCN4C3=O)cc21", "note": "(stereo not shown) [(b2), 2-[7-fluoro-3-oxo-4-(2-propynyl)-3,4-dihydro-2H-1,4-benzoxazin-6-yl]perhydroimidazo[1,5-a]pyridine-1,3-dione]", "values": [{"measurement": "pest or weed control at 15 g/ha", "setting": "[1]; [12]", "value": 35, "unit": "%"}, {"measurement": "pest or weed control at 15 g/ha", "setting": "[2]; [13]", "value": 37, "unit": "%"}, {"measurement": "pest or weed control at 15 g/ha", "setting": "[3]; [14]", "value": 27, "unit": "%"}, {"measurement": "pest or weed control at 15 g/ha", "setting": "[4]; [15]", "value": 90, "unit": "%"}]}, {"smiles": "CCc1nc2c(Cl)cc(F)c(N3C(=O)C4=C(CCCC4)C3=O)c2s1", "note": "[(b3), N-(4-chloro-2-ethyl-6-fluorobenzothiazol-7-yl)-1-cyclohexene-1,2-dicarboximide]", "values": [{"measurement": "pest or weed control at 15 g/ha", "setting": "[1]; [12]", "value": 33, "unit": "%"}, {"measurement": "pest or weed control at 15 g/ha", "setting": "[2]; [13]", "value": 83, "unit": "%"}, {"measurement": "pest or weed control at 15 g/ha", "setting": "[3]; [14]", "value": 20, "unit": "%"}, {"measurement": "pest or weed control at 15 g/ha", "setting": "[4]; [15]", "value": 99, "unit": "%"}]}, {"smiles": "COc1cc(OC)nc(NC(=O)NS(=O)(=O)N(C)S(C)(=O)=O)n1", "note": "[(b4), 3-[4,6-dimethoxypyrimidin-2-yl)-1-(N-methyl-N-methylsulfonyl-aminosulfonyl)urea]", "values": [{"measurement": "pest or weed control at 12 g/ha", "setting": "[1]; [16]", "value": 42, "unit": "%"}, {"measurement": "pest or weed control at 12 g/ha", "setting": "[2]; [17]", "value": 20, "unit": "%"}, {"measurement": "pest or weed control at 12 g/ha", "setting": "[3]; [18]", "value": 40, "unit": "%"}, {"measurement": "pest or weed control at 12 g/ha", "setting": "[4]; [19]", "value": 55, "unit": "%"}]}, {"smiles": "CC(C)c1ccc(NC(=O)N(C)C)cc1", "note": "[(b6), isoproturon]", "values": [{"measurement": "pest or weed control at 750 g/ha", "setting": "[1]; [16]", "value": 13, "unit": "%"}, {"measurement": "pest or weed control at 750 g/ha", "setting": "[2]; [17]", "value": 30, "unit": "%"}, {"measurement": "pest or weed control at 750 g/ha", "setting": "[3]; [18]", "value": 55, "unit": "%"}, {"measurement": "pest or weed control at 750 g/ha", "setting": "[4]; [19]", "value": 83, "unit": "%"}]}, {"smiles": "Cc1ccc(NC(=O)N(C)C)cc1Cl", "note": "[(b7), chlorotoluron]", "values": [{"measurement": "pest or weed control at 750 g/ha", "setting": "[1]; [16]", "value": 15, "unit": "%"}, {"measurement": "pest or weed control at 750 g/ha", "setting": "[2]; [17]", "value": 23, "unit": "%"}, {"measurement": "pest or weed control at 750 g/ha", "setting": "[3]; [18]", "value": 85, "unit": "%"}, {"measurement": "pest or weed control at 750 g/ha", "setting": "[4]; [19]", "value": 88, "unit": "%"}]}, {"smiles": "CCOC(=O)Cn1c(=O)sc2cccc(Cl)c21", "note": "[(b8), benazolin-ethyl]", "values": [{"measurement": "pest or weed control at 200 g/ha", "setting": "[1]; [16]", "value": 18, "unit": "%"}, {"measurement": "pest or weed control at 200 g/ha", "setting": "[2]; [17]", "value": 22, "unit": "%"}, {"measurement": "pest or weed control at 200 g/ha", "setting": "[3]; [18]", "value": 88, "unit": "%"}]}, {"smiles": "O=C(O)CNCP(=O)(O)O", "note": "[(b9), glyphosate]", "values": [{"measurement": "pest or weed control at 50 g/ha", "setting": "[1]; [16]", "value": 20, "unit": "%"}, {"measurement": "pest or weed control at 50 g/ha", "setting": "[2]; [17]", "value": 10, "unit": "%"}, {"measurement": "pest or weed control at 50 g/ha", "setting": "[3]; [18]", "value": 25, "unit": "%"}, {"measurement": "pest or weed control at 50 g/ha", "setting": "[4]; [19]", "value": 28, "unit": "%"}]}, {"smiles": "COC(=O)c1cc(Oc2ccc(Cl)cc2Cl)ccc1[N+](=O)[O-]", "note": "[bifenox]", "values": [{"measurement": "pest or weed control at 500 g/ha", "setting": "[1]; [12]", "value": 78, "unit": "%"}, {"measurement": "pest or weed control at 500 g/ha", "setting": "[2]; [13]", "value": 95, "unit": "%"}, {"measurement": "pest or weed control at 500 g/ha", "setting": "[3]; [14]", "value": 15, "unit": "%"}, {"measurement": "pest or weed control at 500 g/ha", "setting": "[4]; [15]", "value": 63, "unit": "%"}]}, {"smiles": "COc1nc(C)nc(=NC(=O)NS(=O)(=O)c2ccccc2C(=O)O)[nH]1", "note": "[metsulfuron]", "values": [{"measurement": "pest or weed control at 3 g/ha", "setting": "[1]; [16]", "value": 10, "unit": "%"}, {"measurement": "pest or weed control at 3 g/ha", "setting": "[2]; [17]", "value": 50, "unit": "%"}, {"measurement": "pest or weed control at 3 g/ha", "setting": "[3]; [18]", "value": 96, "unit": "%"}, {"measurement": "pest or weed control at 3 g/ha", "setting": "[4]; [19]", "value": 97, "unit": "%"}]}]}
